Laboratory results taken from paper PMC8847695 (Frontiers in Chemistry, 2022).
Entries after “also recorded” stand apart in the source; their conditions may differ.

Assays:
[1] = target: T1, CAMK1G (1-320) (Homo sapiens, UniProt Q96NX5); assay: STD-NMR fragment screening, CAMK1G; type: binding; conditions: for STD-NMR hit: 1 mM fragment, 20 µM protein, hit if peak in difference spectrum three times higher than local noise; for CAMK1G (STD-NMR hit flag): 1 = hit, 0 = no hit
T1 construct: made in house; host or cells: E. coli BL21 (DE3) pLysS
How it was run: (§1)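 Saturation-transfer difference NMR was run at 25°C and 700 MHz with 20 µM protein, two fragments at 1 mM each, and 10% DMSO-d6. On-resonance saturation was at 0.5–0.6 ppm and off-resonance at 40 ppm, with a 3 s Gaussian-pulse train. A hit required a difference-spectrum peak at least three times the local noise.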

[2] = target: T2, DOT1L (Homo sapiens, UniProt Q8TEK3); assay: ITC validation, DOT1L; type: binding; conditions: 25°C, detection level >1 mM
T2 construct: made in house; host or cells: E. coli BL21 (DE3) pLysS
Experimental: (§2) The protein was buffer exchanged into 50 mM HEPES, 100 mM NaCl, 2 mM MgCl2, and 1 mM TCEP at pH 7.4. The protein was concentrated to 50–100 µM, and DMSO was added to a final concentration of 5% (^V/V). The fragments were dissolved in DMSO to yield a 100 mM stock solution, which was further diluted with buffer to yield a 5 mM solution also containing 5% (^V/V) DMSO. A MicroCal iTC200 (Malvern) instrument was used with the measuring cell set to 25°C, while the cooling jacket was set to 15°C. After a 120 s initial delay following temperature equilibration, a first injection with 0.5 µl over 2 s was done. […] The measurement was conducted using a needle stirring speed of 1,000 rpm and a reference heat rate of 10 μcal/s. Experiments were aborted, when the measuring cell was unable to reach a heat rate greater than 9 μcal/s during equilibration. Affinities were averaged from duplicates.

[3] = target: AAK1 (121-471) (Homo sapiens, UniProt Q2M2I8); assay: STD-NMR fragment screening, AAK1; type: binding; conditions: for STD-NMR hit: 1 mM fragment, 20 µM protein, hit if peak in difference spectrum three times higher than local noise; for AAK1 (STD-NMR hit flag): 1 = hit, 0 = no hit
How it was run: as §1

[4] = target: T3, IDO1 (1-435) (Homo sapiens, UniProt P14902); assay: STD-NMR fragment screening, IDO1; type: binding; conditions: for IDO1 (STD-NMR hit flag): 1 = hit, 0 = no hit
T3 construct: His-tag of pET15b with TEV site (thrombin site replaced) (cleaved yes); made in house; host or cells: E. coli Rosetta 2 (DE3) pLysS
How it was run: as §1

[5] = target: T4, DOT1L (1-416) (Homo sapiens, UniProt Q8TEK3); assay: STD-NMR fragment screening, DOT1L; type: binding; conditions: for DOT1L (STD-NMR hit flag): 1 = hit, 0 = no hit
T4 construct: made in house; host or cells: E. coli BL21 (DE3) pLysS
How it was run: as §1

[6] = target: AAK1 (Homo sapiens, UniProt Q2M2I8); assay: ITC validation, AAK1; type: binding; conditions: for Kd / KD: ITC; for LE: LE=1/N⋅1.4⋅−log(KD); for LE / LELP: AAK1; for LELP: LELP= logP/LE
Experimental: as §2

[7] = target: T5, CAMK1G (Homo sapiens, UniProt Q96NX5); assay: ITC validation, CAMK1G; type: binding; conditions: for Kd: ITC, 25°C, 5% DMSO, pH 7.4, duplicates, 7405: fragment concentration reduced to 2 mM
T5 construct: made in house; host or cells: E. coli BL21 (DE3) pLysS
Experimental: as §2

[8] = target: T6, IDO1 (Homo sapiens, UniProt P14902); assay: ITC validation, IDO1; type: binding
T6 construct: His-tag of pET15b with TEV site (thrombin site replaced) (cleaved yes); made in house; host or cells: E. coli Rosetta 2 (DE3) pLysS
Experimental: (§3) The protein was buffer exchanged into 50 mM HEPES, 100 mM NaCl, 2 mM MgCl2, and 1 mM TCEP at pH 7.4. The protein was concentrated to 50–100 µM, and DMSO was added to a final concentration of 5% (^V/V). The fragments were dissolved in DMSO to yield a 100 mM stock solution, which was further diluted with buffer to yield a 5 mM solution also containing 5% (^V/V) DMSO. A MicroCal iTC200 (Malvern) instrument was used with the measuring cell set to 25°C, while the cooling jacket was set to 15°C. After a 120 s initial delay following temperature equilibration, a first injection with 0.5 µl over 2 s was done. Nineteen injections with 2 µl over 4 s were performed every 180 s ([Ruhmann et al., 2015]). The measurement was conducted using a needle stirring speed of 1,000 rpm and a reference heat rate of 10 μcal/s. Experiments were aborted, when the measuring cell was unable to reach a heat rate greater than 9 μcal/s during equilibration. Affinities were averaged from duplicates.

[9] = GSH stability assay (HPLC); type: physicochemical; conditions: t1/2 > 20 h defined as sufficiently stable
Experimental: A 500 µM fragment solution in PBS buffer pH 7.4, 10% acetonitrile and 200 µM indoprofen as an internal standard, was added to 10 mM GSH solution in a 1:2 ratio. The reaction temperature was 40°C. […] The reaction of fragments with GSH was determined by measuring the decreasing area under the curve (AUC) of the compound relative to the internal standard indoprofen. The gradient was chosen depending on the polarity of fragments to be either one of the following: […]

[10] = target: JNK2 (Homo sapiens, UniProt P45984); assay: ITC, JNK2; type: binding
Experimental: as §3

[11] = target: JNK3 (Homo sapiens, UniProt P53779); assay: ITC, JNK3; type: binding
Experimental: as §3

[12] = 1 mM fragment, 20 µM protein, hit if peak in difference spectrum three times higher than local noise
[13] = 25°C, 5% DMSO, pH 7.4, duplicates
[14] = ITC, 25°C, 5% DMSO, pH 7.4, duplicates

Chain of AAK1 (121-471) (Q2M2I8 46-315 limits assumed): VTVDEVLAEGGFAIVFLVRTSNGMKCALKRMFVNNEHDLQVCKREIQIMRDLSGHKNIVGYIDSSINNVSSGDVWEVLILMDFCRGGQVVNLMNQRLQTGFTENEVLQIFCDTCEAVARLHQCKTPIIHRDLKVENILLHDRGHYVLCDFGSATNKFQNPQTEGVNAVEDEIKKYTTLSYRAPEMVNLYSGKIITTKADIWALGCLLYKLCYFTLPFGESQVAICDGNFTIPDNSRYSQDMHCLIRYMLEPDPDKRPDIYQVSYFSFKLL
Chain of AAK1 (Q2M2I8 46-315 limits assumed): as above
T1 sequence (Q96NX5 1-320): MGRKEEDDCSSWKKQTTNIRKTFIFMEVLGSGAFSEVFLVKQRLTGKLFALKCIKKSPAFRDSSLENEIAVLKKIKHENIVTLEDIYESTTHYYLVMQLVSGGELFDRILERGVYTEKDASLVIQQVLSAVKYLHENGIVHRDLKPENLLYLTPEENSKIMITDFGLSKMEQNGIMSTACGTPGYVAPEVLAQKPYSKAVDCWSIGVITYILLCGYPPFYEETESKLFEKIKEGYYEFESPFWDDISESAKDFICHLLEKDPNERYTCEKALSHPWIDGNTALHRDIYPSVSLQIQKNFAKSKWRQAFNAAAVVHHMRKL
T5 sequence (Q96NX5 1-320): as above
T3 sequence (P14902 whole entry, the tested form may be a part): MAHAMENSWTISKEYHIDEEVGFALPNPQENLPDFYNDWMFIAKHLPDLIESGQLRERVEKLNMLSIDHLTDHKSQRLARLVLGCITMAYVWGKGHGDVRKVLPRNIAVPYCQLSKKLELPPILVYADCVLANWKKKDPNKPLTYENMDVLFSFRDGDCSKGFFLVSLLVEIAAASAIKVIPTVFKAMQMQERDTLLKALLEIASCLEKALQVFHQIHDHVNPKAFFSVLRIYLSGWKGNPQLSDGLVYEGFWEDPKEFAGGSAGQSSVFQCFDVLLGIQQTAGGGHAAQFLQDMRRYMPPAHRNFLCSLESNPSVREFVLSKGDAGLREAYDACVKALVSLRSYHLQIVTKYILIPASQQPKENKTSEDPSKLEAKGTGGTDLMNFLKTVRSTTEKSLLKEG
T6 sequence (P14902 whole entry): as the sequence (P14902 whole entry, the tested form may be a part) above
T2 sequence (Q8TEK3 1-416): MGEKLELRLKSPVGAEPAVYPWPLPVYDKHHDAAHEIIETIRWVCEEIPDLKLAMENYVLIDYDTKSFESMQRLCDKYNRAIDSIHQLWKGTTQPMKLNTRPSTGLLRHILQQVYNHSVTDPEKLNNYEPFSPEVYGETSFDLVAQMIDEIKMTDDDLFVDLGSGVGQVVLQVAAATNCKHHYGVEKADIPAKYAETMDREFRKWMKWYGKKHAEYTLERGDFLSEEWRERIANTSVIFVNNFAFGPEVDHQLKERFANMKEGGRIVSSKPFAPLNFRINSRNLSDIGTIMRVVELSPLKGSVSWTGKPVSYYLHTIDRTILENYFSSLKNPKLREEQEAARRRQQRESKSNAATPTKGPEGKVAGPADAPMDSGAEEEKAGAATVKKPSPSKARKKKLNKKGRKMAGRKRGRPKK
T4 sequence (Q8TEK3 1-416): as above
Chain of JNK3 (P53779 whole entry, species assumed): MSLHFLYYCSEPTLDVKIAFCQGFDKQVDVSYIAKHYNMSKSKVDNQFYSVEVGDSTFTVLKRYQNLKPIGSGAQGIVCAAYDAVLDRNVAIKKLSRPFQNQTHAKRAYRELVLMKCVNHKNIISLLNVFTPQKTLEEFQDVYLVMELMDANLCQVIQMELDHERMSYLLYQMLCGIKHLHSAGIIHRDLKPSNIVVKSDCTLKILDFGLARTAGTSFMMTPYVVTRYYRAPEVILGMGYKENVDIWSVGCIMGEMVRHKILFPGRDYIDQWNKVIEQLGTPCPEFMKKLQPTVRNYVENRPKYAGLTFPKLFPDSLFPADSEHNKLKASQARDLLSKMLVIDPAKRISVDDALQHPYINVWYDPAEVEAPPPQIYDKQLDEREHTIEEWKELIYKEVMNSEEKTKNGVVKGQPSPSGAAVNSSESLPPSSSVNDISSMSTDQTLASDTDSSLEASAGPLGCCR
Chain of JNK2 (P45984 whole entry, species assumed): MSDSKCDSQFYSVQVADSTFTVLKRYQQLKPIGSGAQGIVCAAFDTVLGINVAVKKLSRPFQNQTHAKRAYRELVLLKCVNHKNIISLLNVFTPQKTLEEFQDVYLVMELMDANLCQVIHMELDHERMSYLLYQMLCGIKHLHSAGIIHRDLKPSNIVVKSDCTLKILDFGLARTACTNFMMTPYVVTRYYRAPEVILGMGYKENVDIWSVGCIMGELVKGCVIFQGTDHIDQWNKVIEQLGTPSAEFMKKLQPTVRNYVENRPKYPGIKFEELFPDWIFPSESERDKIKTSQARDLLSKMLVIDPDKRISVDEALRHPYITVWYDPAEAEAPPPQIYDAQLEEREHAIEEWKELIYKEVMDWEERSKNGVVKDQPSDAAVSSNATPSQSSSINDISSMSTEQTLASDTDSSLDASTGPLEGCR

| Compound | AAK1 (STD-NMR hit flag) [3] | CAMK1G (STD-NMR hit flag) [1] | IDO1 (STD-NMR hit flag) [4] | DOT1L (STD-NMR hit flag) [5] | other results |
| --- | --- | --- | --- | --- | --- |
| Brc1cnc2cnccn12 [Fragment 0120] |  |  |  |  | STD-NMR hit [1]: fragment hits; ITC validation (KD) [2]: None of these could be validated with ITC |
| Cc1n[nH]c(C)c1I [Fragment 0459] |  |  |  |  | STD-NMR hit [3]: STD hit; STD-NMR hit [1]: STD hit; STD-NMR hit [4, 12]: STD hit; STD-NMR hit [5, 12]: STD hit; Kd [6, 13]: 18 µM; Kd [7]: 190 µM; KD [8, 14]: too low to derive reliable affinity determination; Kd [8, 14]: > 1000 µM; ITC validation (KD) [2]: None of these could be validated with ITC; also recorded: beyond the limits of ITC |
| Nc1c(Cl)ccc(O)c1Cl [Fragment 0471] |  |  |  |  | Kd [6, 13]: 90 µM; LE [6]: 0.57; LELP [6]: 4.03 |
| Oc1nc2nc(Cl)ccc2[nH]1 [Fragment 0474] |  |  |  |  | Kd [6, 13]: 180 µM; LE [6]: 0.48; LELP [6]: 1.90; stability with GSH (in words) [9]: sufficiently stable |
| Cn1c(=O)c2[nH]c(Cl)nc2n(C)c1=O [Fragment 1216] |  |  |  |  | Kd [8, 14]: 390 µM; LE ([8]; LE=1/N⋅1.4⋅−log(KD), IDO1): 0.34; LELP ([8]; LELP= logP/LE, IDO1): −1.92; stability with GSH (in words) [9]: sufficiently stable |
| Nc1c(Cl)ccc2nonc12 [Fragment 1217] |  |  |  |  | stability with GSH (in words) [9]: sufficiently stable |
| Cc1c(Cl)cnc(N)c1Cl [Fragment 7405] |  |  |  |  | Kd [7]: 130 µM; ITC validation (KD) [2]: None of these could be validated with ITC |
| Nc1ccc2[nH]cnc2c1Br [Fragment 7409] |  |  |  |  | Kd [6, 13]: 6 µM; LE [6]: 0.67; LELP [6]: 2.86; LE ([7]; LE=1/N⋅1.4⋅−log(KD), CAMK1G): over 0.4; stability with GSH (in words) [9]: sufficiently stable |
| Clc1ncnc2cc[nH]c12 [Fragment 9595, 4-chloro-5H-pyrrolo[3,2-d]pyrimidine] |  |  |  |  | STD-NMR hit [3]: binds; Kd [6, 13]: 6 µM; Kd [10]: 67 µM; Kd [11]: 130 µM; stability with GSH (in words) [9]: sufficiently stable |
| Clc1ccnc2cc[nH]c12 [Fragment A1] |  |  |  |  | Kd [6, 13]: 50 µM |
| Clc1nccc2cc[nH]c12 [Fragment A2] |  |  |  |  | Kd [6, 13]: 60 µM |
| c1cc2cc[nH]c2cn1 [Fragment A3] |  |  |  |  | KD [6, 13]: completely abolished the affinity; Kd ([6]; SAR analogs of 9595): > 1000 µM |
| Clc1ncnc2ccoc12 [Fragment A4] |  |  |  |  | Kd [6, 13]: 302 µM |
| Clc1ncnc2ccsc12 [Fragment A5] |  |  |  |  | KD [6, 13]: completely abolished the affinity |
| Clc1cccc2cc[nH]c12 [Fragment A6] |  |  |  |  | Kd [6, 13]: 170 µM |
| CC(=O)Nc1ccc(Cl)c(C(=O)O)n1 [Fragment B02297416] | 0 | 0 | 0 | 0 |  |

| Compound | AAK1 (STD-NMR hit flag) [3] | CAMK1G (STD-NMR hit flag) [1] | IDO1 (STD-NMR hit flag) [4] | DOT1L (STD-NMR hit flag) [5] | other results |
| --- | --- | --- | --- | --- | --- |
| O=C(O)C(O)c1cccc(Cl)c1 (stereo not shown) [Fragment B02297417] | 0 | 0 | 0 | 0 |  |
| O=C(O)c1ncc(Cl)cc1Cl [Fragment B02297418] | 0 | 0 | 0 | 0 |  |
| Cc1[nH]c(=O)[nH]c(=O)c1I [Fragment B02297420] | 1 | 0 | 1 | 1 |  |
| [O-][n+]1ccc(Cl)cc1 [Fragment B02297421] | 0 | 0 | 0 | 0 |  |
| Brc1cnc(N2CCNCC2)nc1 [Fragment B02297422] | 1 | 1 | 0 | 0 |  |
| COc1ncc(C(=O)O)cc1Cl [Fragment B02297423] | 1 | 1 | 1 | 0 |  |
| Nc1cnccc1Br [Fragment B02297424] | 1 | 1 | 0 | 0 |  |
| O=c1ncc(Cl)c[nH]1 [Fragment B02297425] | 0 | 0 | 1 | 0 |  |
| O=C(O)c1ccncc1Br [Fragment B02297426] | 0 | 0 | 0 | 0 |  |
| O=c1cc(O)c(Cl)c[nH]1 [Fragment B02297427] | 0 | 0 | 1 | 0 |  |
| Cc1ccc(C(=O)O)c(Cl)n1 [Fragment B02297428] | 0 | 0 | 0 | 0 |  |
| COc1ncc(Cl)cc1C(=O)O [Fragment B02297429] | 0 | 0 | 1 | 0 |  |
| Nc1ncc(C(=O)O)cc1Br [Fragment B02297655] | 0 | 0 | 0 | 0 |  |
| CC(=O)CS(=O)(=O)c1cc(Cl)ccc1F [Fragment B02297765] | 0 | 0 | 0 | 0 |  |
| Cn1ncc(I)c1C(=O)NN [Fragment B02297766] | 0 | 0 | 0 | 0 |  |
